Experimental data published in ChEMBL document CHEMBL1201862, “PubChem BioAssay data set” (2004).
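Dose response: 5 concentrations. Exposure: 48 h. Format: 96-well plates. Endpoint: linear interpolation; highest concentration if not reached. GI50 marks 50% less growth.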 Calls of active or inactive are those of the source. No stated cut-off is given here; in the data, active = GI50 up to about 1.1 µM and inactive = higher.

How the values were obtained:
Experiment in all cases: DTP human tumour cell line panel, 48 h
A549 = test system: A549
DU-145 = test system: DU-145
IGROV-1 = test system: IGROV-1
TK-10 = test system: TK-10
COLO 205 = test system: COLO 205
SK-MEL-28 = test system: SK-MEL-28
OVCAR-8 = test system: OVCAR-8
U-251 = test system: U-251
HOP-62 = test system: HOP-62
RPMI-8226 = test system: RPMI-8226
CCRF-CEM = test system: CCRF-CEM
MCF7 = test system: MCF7
SK-MEL-5 = test system: SK-MEL-5
SK-MEL-2 = test system: SK-MEL-2
RXF 393 = test system: RXF 393
T47D = test system: T47D
HCT-15 = test system: HCT-15
SK-OV-3 = test system: SK-OV-3
ACHN = test system: ACHN
NCI-H460 = test system: NCI-H460

## OCSc1nn(CO)c(=S)s1
A549
  GI50: 33.2 µM (inactive)
DU-145
  GI50: 23.8 µM (inactive)
IGROV-1
  GI50: 17.7 µM (inactive)
TK-10
  GI50: 73.5 µM (inactive)
COLO 205
  GI50: 28.1 µM (inactive)
SK-MEL-28
  GI50: 21.7 µM (inactive)
OVCAR-8
  GI50: 10.5 µM (inactive)
U-251
  GI50: 23.8 µM (inactive)
HOP-62
  GI50: 21.8 µM (inactive)
RPMI-8226
  GI50: 25.4 µM (inactive)
CCRF-CEM
  GI50: 6.79 µM (inactive)
MCF7
  GI50: 15.4 µM (inactive)
SK-MEL-5
  GI50: 31.8 µM (inactive)
SK-MEL-2
  GI50: 23 µM (inactive)
RXF 393
  GI50: 16.9 µM (inactive)
T47D
  GI50: 23.9 µM (inactive)
HCT-15
  GI50: 18.3 µM
SK-OV-3
  GI50: 34.4 µM (inactive)
ACHN
  GI50: 25.1 µM (inactive)
NCI-H460
  GI50: 23.8 µM (inactive)

## COC(=O)C1=C2Nc3ccccc3C23CCN2C(O)C4(CC5CC67CCOC6CCN6CCC8(c9cccc(OC)c9N(C4)C58O)C67)C4OCCC4(C1)C23 (stereo not given)
A549
  GI50: > 100 µM (inactive)
DU-145
  GI50: 36.3 µM (inactive)
IGROV-1
  GI50: 87.7 µM (inactive)
TK-10
  GI50: > 100 µM (inactive)
COLO 205
  GI50: > 100 µM (inactive)
SK-MEL-28
  GI50: 97.5 µM (inactive)
OVCAR-8
  GI50: 23.5 µM (inactive)
U-251
  GI50: 35.6 µM (inactive)
HOP-62
  GI50: 44.2 µM (inactive)
RPMI-8226
  GI50: > 100 µM (inactive)
CCRF-CEM
  GI50: > 100 µM (inactive)
MCF7
  GI50: 47.2 µM (inactive)
SK-MEL-5
  GI50: 49.5 µM (inactive)
SK-MEL-2
  GI50: 84.1 µM (inactive)
RXF 393
  GI50: 49.7 µM (inactive)
T47D
  GI50: 20.3 µM (inactive)
HCT-15
  GI50: > 100 µM
SK-OV-3
  GI50: 68.5 µM (inactive)
ACHN
  GI50: 86.5 µM (inactive)
NCI-H460
  GI50: 76.7 µM (inactive)

## Nc1ccc(C2SCC(=O)N2NS(=O)(=O)c2cccc(C(=O)O)c2)cc1 (stereo not given)
A549
  GI50: > 100 µM (inactive)
DU-145
  GI50: > 100 µM (inactive)
IGROV-1
  GI50: > 100 µM (inactive)
TK-10
  GI50: > 100 µM (inactive)
COLO 205
  GI50: > 100 µM (inactive)
SK-MEL-28
  GI50: > 100 µM (inactive)
OVCAR-8
  GI50: > 100 µM (inactive)
U-251
  GI50: > 100 µM (inactive)
HOP-62
  GI50: > 100 µM (inactive)
RPMI-8226
  GI50: 10.4 µM (inactive)
CCRF-CEM
  GI50: 63.8 µM (inactive)
MCF7
  GI50: > 100 µM (inactive)
SK-MEL-5
  GI50: > 100 µM (inactive)
SK-MEL-2
  GI50: > 100 µM (inactive)
RXF 393
  GI50: > 100 µM (inactive)
T47D
  GI50: 58.3 µM (inactive)
HCT-15
  GI50: > 100 µM
SK-OV-3
  GI50: > 100 µM (inactive)
ACHN
  GI50: > 100 µM (inactive)
NCI-H460
  GI50: > 100 µM (inactive)

## CC(=O)Nc1ccc(-c2nc3cc(Cl)ccc3o2)cc1
A549
  GI50: > 50 µM (inactive)
DU-145
  GI50: > 50 µM (inactive)
IGROV-1
  GI50: > 50 µM (inactive)
TK-10
  GI50: > 50 µM (inactive)
COLO 205
  GI50: > 50 µM (inactive)
SK-MEL-28
  GI50: > 50 µM (inactive)
OVCAR-8
  GI50: > 50 µM (inactive)
U-251
  GI50: 45.7 µM (inactive)
HOP-62
  GI50: > 50 µM (inactive)
RPMI-8226
  GI50: > 50 µM (inactive)
CCRF-CEM
  GI50: > 50 µM (inactive)
MCF7
  GI50: > 50 µM (inactive)
SK-MEL-5
  GI50: 20.4 µM (inactive)
SK-MEL-2
  GI50: > 50 µM (inactive)
RXF 393
  GI50: > 50 µM (inactive)
T47D
  GI50: 20.4 µM (inactive)
HCT-15
  GI50: > 50 µM
SK-OV-3
  GI50: > 50 µM (inactive)
ACHN
  GI50: > 50 µM (inactive)
NCI-H460
  GI50: > 50 µM (inactive)

## C/C=C/C=C\C1OC(O)([C@H](CC)C(=O)NC/C=C/C=C(\C)[C@H](OC)C(C)C2OC(\C=C/C=C/C=C(\C)C(=O)c3c(O)ccn(C)c3=O)[C@H](O)[C@@H]2O)C(O)C(O)C1(C)C (stereo not given in full)
A549
  GI50: > 100 µM (inactive)
DU-145
  GI50: > 100 µM (inactive)
IGROV-1
  GI50: 82 µM (inactive)
TK-10
  GI50: > 100 µM (inactive)
COLO 205
  GI50: > 100 µM (inactive)
SK-MEL-28
  GI50: > 100 µM (inactive)
OVCAR-8
  GI50: 82.8 µM (inactive)
U-251
  GI50: > 100 µM (inactive)
HOP-62
  GI50: > 100 µM (inactive)
RPMI-8226
  GI50: 20.3 µM (inactive)
CCRF-CEM
  GI50: 38.4 µM (inactive)
MCF7
  GI50: > 100 µM (inactive)
SK-MEL-5
  GI50: 88.1 µM (inactive)
SK-MEL-2
  GI50: > 100 µM (inactive)
RXF 393
  GI50: > 100 µM (inactive)
T47D
  GI50: 40.2 µM (inactive)
HCT-15
  GI50: > 100 µM
SK-OV-3
  GI50: > 100 µM (inactive)
ACHN
  GI50: > 100 µM (inactive)
NCI-H460
  GI50: > 100 µM (inactive)

## COc1ccc(Nc2n[nH]c(NS(=O)(=O)c3cc(C)c(Cl)cc3S)n2)cc1
A549
  GI50: > 100 µM (inactive)
DU-145
  GI50: > 100 µM (inactive)
IGROV-1
  GI50: > 100 µM (inactive)
TK-10
  GI50: > 100 µM (inactive)
COLO 205
  GI50: > 100 µM (inactive)
SK-MEL-28
  GI50: > 100 µM (inactive)
OVCAR-8
  GI50: > 100 µM (inactive)
U-251
  GI50: > 100 µM (inactive)
HOP-62
  GI50: > 100 µM (inactive)
RPMI-8226
  GI50: > 100 µM (inactive)
CCRF-CEM
  GI50: > 100 µM (inactive)
MCF7
  GI50: > 100 µM (inactive)
SK-MEL-5
  GI50: > 100 µM (inactive)
SK-MEL-2
  GI50: > 100 µM (inactive)
RXF 393
  GI50: > 100 µM (inactive)
T47D
  GI50: > 100 µM (inactive)
HCT-15
  GI50: > 100 µM
SK-OV-3
  GI50: > 100 µM (inactive)
ACHN
  GI50: > 100 µM (inactive)
NCI-H460
  GI50: > 100 µM (inactive)

## CCN(CC)CCNC(=O)c1ccc(I)cc1
A549
  GI50: > 100 µM (inactive)
DU-145
  GI50: > 100 µM (inactive)
IGROV-1
  GI50: > 100 µM (inactive)
TK-10
  GI50: > 100 µM (inactive)
COLO 205
  GI50: > 100 µM (inactive)
SK-MEL-28
  GI50: > 100 µM (inactive)
OVCAR-8
  GI50: > 100 µM (inactive)
U-251
  GI50: > 100 µM (inactive)
HOP-62
  GI50: > 100 µM (inactive)
RPMI-8226
  GI50: > 100 µM (inactive)
CCRF-CEM
  GI50: 89.5 µM (inactive)
MCF7
  GI50: > 100 µM (inactive)
SK-MEL-5
  GI50: 28.4 µM (inactive)
SK-MEL-2
  GI50: > 100 µM (inactive)
RXF 393
  GI50: > 100 µM (inactive)
T47D
  GI50: 64.4 µM (inactive)
HCT-15
  GI50: > 100 µM
SK-OV-3
  GI50: > 100 µM (inactive)
ACHN
  GI50: > 100 µM (inactive)
NCI-H460
  GI50: > 100 µM (inactive)
